In paper PMC6599250, “Functional diversity of inhibitors tackling the differentiation blockage of MLL-rearranged leukemia” (Journal of Hematology & Oncology, 2019):
Like-named read-outs stand apart in the source and are kept apart here.

Tests used:
Assay type in all cases: cell-based
[1] = system: HL-60 cells; assay: CD11b protein expression by flow cytometry, HL-60; conditions: non-fused HL-60 cell line, 4 and 7 days of treatment
Protocol: (§1) Four thousand cells per well were seeded 24 h before they were treated with the indicated inhibitor in a 96 MTP. After 4 or 7 days of treatment, cells were washed with PBS and stained with CD11b - APC (BioLegend, San Diego, California, USA) and DAPI (Thermo Fisher Scientific, Waltham, Massachusetts, USA) or AnnexinV – FITC (BioLegend, San Diego, California, USA) and PI solution (Sigma-Aldrich St. Louis, Missouri, USA) using the FACS Canto II (BD Biosciences, Heidelberg, Germany) and data was analyzed with FACSDiva software.

[2] = system: NOMO-1 (MLL-AF9) cells; assay: Cell proliferation (alamarBlue) NOMO-1; conditions: Homo sapiens
Protocol: (§2) Cells were seeded in the optimal growth medium at 4000–5000 cells/well in a 96 MTP and cultured 18–24 h before inhibitor treatment.

[3] = system: MLL-fused cell lines (MV4-11, MOLM-13); assay: CD11b protein expression by flow cytometry, MLL-fused lines; conditions: 4 and 7 days of treatment
Protocol: as §1

[4] = system: MV4-11, MOLM-13 and HL-60 cells; assay: Cell cycle analysis (PI, flow cytometry); conditions: 4 days of treatment (Figure S2)
Protocol: Cells were washed with PBS and fixed overnight at − 20 °C with 70% ethanol. Fixed cells were stained with PI solution (Sigma-Aldrich St. Louis, MO, USA) solution containing RNase A (Qiagen, Hilden, Germany). Fluorescence was measured with FACS Canto II (BD Biosciences, Heidelberg, Germany) flow cytometer and data was analyzed with FACSDiva software.

[5] = system: KOPN-8 (MLL-ENL) cells; assay: Cell proliferation (alamarBlue) KOPN-8; conditions: Homo sapiens
Protocol: as §2

[6] = system: MV4-11 (MLL-AF4) cells; assay: Cell proliferation (alamarBlue) MV4-11; conditions: Homo sapiens
Protocol: as §2

[7] = system: OCI-AML-2 (MLL-AF9) cells; assay: Cell proliferation (alamarBlue) OCI-AML-2; conditions: Homo sapiens
Protocol: as §2

[8] = system: Jurkat (MLL-WT) cells; assay: Cell proliferation (alamarBlue) Jurkat; conditions: Homo sapiens
Protocol: as §2

[9] = system: OCI-AML-3 (MLL-WT) cells; assay: Cell proliferation (alamarBlue) OCI-AML-3; conditions: Homo sapiens
Protocol: as §2

[10] = system: MOLM-14 (MLL-AF9) cells; assay: Cell proliferation (alamarBlue) MOLM-14; conditions: Homo sapiens
Protocol: as §2

[11] = system: RS4;11 (MLL-AF4) cells; assay: Cell proliferation (alamarBlue) RS4;11; conditions: Homo sapiens, RS4-11, read-out: IC50 proliferation, RS4;11 (MLL-AF4)
Protocol: as §2

[12] = system: ML-2 (MLL-AF6) cells; assay: Cell proliferation (alamarBlue) ML-2
Protocol: as §2

[13] = system: HL-60 (MLL-WT) cells; assay: Cell proliferation (alamarBlue) HL-60; conditions: for IC50: Homo sapiens, read-out: IC50 proliferation
Protocol: as §2

[14] = system: selected MLL-fused models; assay: Cell proliferation, AML/ALL panel; conditions: specifically in selected MLL-fused models (Fig. 2a); read-out: proliferation IC50 (significant effects)
Protocol: as §2

[15] = system: MOLM-13 (MLL-AF9) cells; assay: Cell proliferation (alamarBlue) MOLM-13; conditions: Homo sapiens
Protocol: as §2

[16] = system: EOL-1 (MLL-TD) cells; assay: Cell proliferation (alamarBlue) EOL-1; conditions: Homo sapiens
Protocol: as §2

[17] = system: OCI-AML-5 (MLL-WT) cells; assay: Cell proliferation (alamarBlue) OCI-AML-5; conditions: Homo sapiens
Protocol: as §2

[18] = system: SEM (MLL-AF4) cells; assay: Cell proliferation (alamarBlue) SEM
Protocol: as §2

[19] = system: MV4-11, MOLM-13 and HL-60 cells; assay: Cell proliferation, all three tested AML cell lines; conditions: 96 h, read-out: anti-proliferation IC50s
Protocol: Cells were seeded in the optimal growth medium at 4000–5000 cells/well in a 96 MTP and cultured 18–24 h before inhibitor treatment. Upon treatment with the indicated inhibitor, cells were cultured for 24 h, 96 h, and 168 h and effects on proliferation were determined using alamarBlue Cell Viability Reagent (Thermo Fisher Scientific, Waltham, MA, USA).

[20] = NOMO-1, read-out: IC50 proliferation, NOMO-1 (MLL-AF9), D1
[21] = NOMO-1, read-out: IC50 proliferation, NOMO-1 (MLL-AF9), D4
[22] = NOMO-1, read-out: IC50 proliferation, NOMO-1 (MLL-AF9), D7
[23] = KOPN-8, read-out: IC50 proliferation, KOPN-8 (MLL-ENL), D1
[24] = KOPN-8, read-out: IC50 proliferation, KOPN-8 (MLL-ENL), D4
[25] = KOPN-8, read-out: IC50 proliferation, KOPN-8 (MLL-ENL), D7
[26] = MV4-11, read-out: IC50 proliferation, MV4-11 (MLL-AF4), D1
[27] = MV4-11, read-out: IC50 proliferation, MV4-11 (MLL-AF4), D4
[28] = MV4-11, read-out: IC50 proliferation, MV4-11 (MLL-AF4), D7
[29] = OCI-AML2, read-out: IC50 proliferation, OCI-AML-2 (MLL-AF9), D1
[30] = OCI-AML2, read-out: IC50 proliferation, OCI-AML-2 (MLL-AF9), D4
[31] = OCI-AML2, read-out: IC50 proliferation, OCI-AML-2 (MLL-AF9), D7
[32] = read-out: IC50 proliferation, Jurkat (MLL-WT), D1
[33] = read-out: IC50 proliferation, Jurkat (MLL-WT), D4
[34] = read-out: IC50 proliferation, Jurkat (MLL-WT), D7
[35] = OCI-AML-3, read-out: IC50 proliferation, OCI-AML-3 (MLL-WT), D1
[36] = OCI-AML-3, read-out: IC50 proliferation, OCI-AML-3 (MLL-WT), D4
[37] = OCI-AML-3, read-out: IC50 proliferation, OCI-AML-3 (MLL-WT), D7
[38] = MOLM-14, read-out: IC50 proliferation, MOLM-14 (MLL-AF9), D1
[39] = MOLM-14, read-out: IC50 proliferation, MOLM-14 (MLL-AF9), D4
[40] = MOLM-14, read-out: IC50 proliferation, MOLM-14 (MLL-AF9), D7
[41] = read-out: IC50 proliferation, ML-2 (MLL-AF6), D1
[42] = read-out: IC50 proliferation, ML-2 (MLL-AF6), D4
[43] = read-out: IC50 proliferation, ML-2 (MLL-AF6), D7
[44] = MOLM-13, read-out: IC50 proliferation, MOLM-13 (MLL-AF9), D1
[45] = MOLM-13, read-out: IC50 proliferation, MOLM-13 (MLL-AF9), D4
[46] = MOLM-13, read-out: IC50 proliferation, MOLM-13 (MLL-AF9), D7
[47] = EOL1, read-out: IC50 proliferation, EOL-1 (MLL-TD), D1
[48] = EOL1, read-out: IC50 proliferation, EOL-1 (MLL-TD), D4
[49] = EOL1, read-out: IC50 proliferation, EOL-1 (MLL-TD), D7
[50] = OCI-AML-5, read-out: IC50 proliferation, OCI-AML-5 (MLL-WT), D1
[51] = OCI-AML-5, read-out: IC50 proliferation, OCI-AML-5 (MLL-WT), D4
[52] = OCI-AML-5, read-out: IC50 proliferation, OCI-AML-5 (MLL-WT), D7
[53] = read-out: IC50 proliferation, SEM (MLL-AF4), D1
[54] = read-out: IC50 proliferation, SEM (MLL-AF4), D4
[55] = read-out: IC50 proliferation, SEM (MLL-AF4), D7

Cc1c(CN2CCC3(CC2)CN(c2ncnc4sc(CC(F)(F)F)cc24)C3)ccc2c1cc(C#N)n2CC(N)=O [BAY-155] was tested, and the “CD11b level” value [1] was “did not increase CD11b level”, the IC50 [2, 20] was over 10000 nM and the IC50 [2, 21] was 150 nM. For the same compound, the IC50 [2, 22] was 70 nM, the “CD11b protein level” value [3] was “increased CD11b protein level in a dose and time-dependent manner” and the “cell cycle effect” value [4] was “decrease of cells in S and G2/M phase with increasing concentrations”. It also gave an IC50 [5, 23] of over 10000 nM, an IC50 [5, 24] of 6340 nM and an IC50 [5, 25] of 1890 nM. It also gave an IC50 [6, 26] of over 10000 nM, an IC50 [6, 27] of 90 nM and an IC50 [6, 28] of 30 nM. For the same compound, the IC50 [7, 29] was over 10000 nM, the IC50 [7, 30] was 8260 nM and the IC50 [7, 31] was 9150 nM. For the same compound, the IC50 [8, 32] was over 10000 nM, the IC50 [8, 33] was 9000 nM and the IC50 [8, 34] was 9090 nM. For the same compound, the IC50 [9, 35] was over 10000 nM, the IC50 [9, 36] was 1370 nM and the IC50 [9, 37] was 1560 nM. The IC50 [10, 38] was 6890 nM, the IC50 [10, 39] was 310 nM and the IC50 [10, 40] was 230 nM. It also gave an IC50 ([11]; D1) of over 10000 nM, an IC50 ([11]; D4) of over 10000 nM and an IC50 ([11]; D7) of 5990 nM. The IC50 [12, 41] was over 10000 nM, the IC50 [12, 42] was over 10000 nM and the IC50 [12, 43] was over 10000 nM. For the same compound, the “anti-proliferation effect in non-fused HL-60” value ([13]; HL-60, 4 days of treatment (Fig. 1a)) was “only affected with the 10 μM treatment”, the IC50 ([13]; HL-60, 24 h) was over 10000 nM and the IC50 ([13]; HL-60, 96 h) was 9040 nM. For the same compound, the IC50 ([13]; HL-60, 168 h) was over 10000 nM, the IC50 [14] was under 1000 nM and the IC50 [15, 44] was over 10000 nM. It also gave an IC50 [15, 45] of 140 nM, an IC50 [15, 46] of 280 nM and an IC50 [16, 47] of 6830 nM. It also gave an IC50 [16, 48] of 1620 nM, an IC50 [16, 49] of 1140 nM and an IC50 [17, 50] of over 10000 nM. It also gave an IC50 [17, 51] of over 10000 nM, an IC50 [17, 52] of 8560 nM and an IC50 [18, 53] of over 10000 nM. It also gave an IC50 [18, 54] of 660 nM and an IC50 [18, 55] of 790 nM.
With Cc1c(-c2ccc(-c3ccccc3F)cc2)nc2ccc(F)cc2c1C(=O)O [Brequinar] the “CD11b level” value [1] was “treatment did”, the IC50 [2, 20] was over 10000 nM and the IC50 [2, 21] was 270 nM. For the same compound, the IC50 [2, 22] was 130 nM, the “CD11b protein level” value [3] was “increased CD11b protein level in a dose and time-dependent manner” and the “cell cycle effect” value [4] was “slight S-phase arrest at lower concentrations”. The IC50 [5, 23] was over 10000 nM, the IC50 [5, 24] was 300 nM and the IC50 [5, 25] was 360 nM. For the same compound, the IC50 [6, 26] was over 10000 nM, the IC50 [6, 27] was 100 nM and the IC50 [6, 28] was 220 nM. The IC50 [7, 29] was over 10000 nM, the IC50 [7, 30] was over 10000 nM and the IC50 [7, 31] was over 10000 nM. For the same compound, the IC50 [8, 32] was over 10000 nM, the IC50 [8, 33] was 30 nM and the IC50 [8, 34] was 50 nM. It also gave an IC50 [19] of 30 to 140 nM, an IC50 [9, 35] of over 10000 nM and an IC50 [9, 36] of 200 nM. For the same compound, the IC50 [9, 37] was 240 nM, the IC50 [10, 38] was over 10000 nM and the IC50 [10, 39] was 320 nM. For the same compound, the IC50 [10, 40] was 180 nM, the IC50 ([11]; D1) was over 10000 nM and the IC50 ([11]; D4) was 1100 nM. For the same compound, the IC50 ([11]; D7) was over 10000 nM, the IC50 [12, 41] was over 10000 nM and the IC50 [12, 42] was 500 nM. It also gave an IC50 [12, 43] of 310 nM, an IC50 ([13]; HL-60, 24 h) of over 10000 nM and an IC50 ([13]; HL-60, 96 h) of 800 nM. It also gave an IC50 ([13]; HL-60, 168 h) of 270 nM, an IC50 [15, 44] of over 10000 nM and an IC50 [15, 45] of 110 nM. It also gave an IC50 [15, 46] of 220 nM, an IC50 [16, 47] of over 10000 nM and an IC50 [16, 48] of 380 nM. It also gave an IC50 [16, 49] of 110 nM, an IC50 [17, 50] of over 10000 nM and an IC50 [17, 51] of over 10000 nM. The IC50 [17, 52] was over 10000 nM, the IC50 [18, 53] was over 10000 nM and the IC50 [18, 54] was 190 nM. It also gave an IC50 [18, 55] of 250 nM.
